Test results taken from patent US6984655B1, “Photodynamic therapy for selectively closing neovasa in eyeground tissue” (Meiji Seika Kaisha, Ltd., priority 2000, dated 2006).

Legend:
[1] = system: experimental choroidal neovascular vessels (CNV); details: optical microscope, pathological examination
From the text: In the experiments of this Test Example 2, there were used 31 neovasculature lesions chosen from among the neovasculature lesions which comprised the experimental choroidal neovascular vessels (CNV) as produced in the ocular fundi of the monkeys of the genus Macaca by the modified Ryan's method set out in the Test Example 1 above.
The 664 nm-laser light was irradiated for 300 seconds at a fluence of 204 J/cm^2.
The laser light was irradiated for 60 to 300 seconds at different fluences.
The 664 nm-laser light was irradiated at different fluences for 60 seconds or for 10 seconds. […]
After the treatment with the irradiation of 664 nm-laser light was terminated, the test monkeys having the neovasculature lesions, either treated or untreated, were fed for 1 week under routine feeding conditions. After the feeding for one week, the effects of the above treatments were judged by a fluorescence fundus angiography with fluorescein and by a fluorescence fundus angiography with indocyanine green (ICG). […] For the fluorescence fundus angiography with ICG, the ocular fundi of the monkeys were observed and diagnosed by means of SLO or by means of an infrared light fundus camera apparatus for the infrared ocular fundus angiography, after the intravenous injection of ICG. […]

[2] = system: experimental choroidal neovascular vessels (CNV); test: PDT with NPe6 timed by prior ICG angiography (Test Example 4)
Description: To these test monkeys was intravenously injected ICG at a dose of 1 mg/kg in the same way as in Test Example 3. Immediately after the time of the intravenous injection of ICG, the ocular fundi of the monkeys were continuously observed by means of an infrared light fundus camera apparatus (of modified TCR 50 type, manufactured by Topcon Co., Ltd.) for the infrared fluorescence fundus angiography for diagnosing the ocular fundus. The observation with the fundus camera was made under irradiation of the ocular fundi with the laser light containing a light of 790 nm-wavelength. There was recorded the time point at which the infrared fluorescence of ICG was eliminated entirely from the retinal normal vascular vessels. The time-gap which was extended between the aforesaid time point as recorded for the entire elimination of the infrared fluorescence of IGC and the time of the intravenous injection of ICG was calculated in a unit of “minutes” or “second”, whereby it was estimated that said time-gap was 30 minutes. • (b) Time was allowed to pass until the infrared fluorescence of ICG was eliminated entirely from the neovasculature lesions in the ocular fundi of the test monkeys. […] The 664 nm-laser light as irradiated was irradiated at an irradiance of 0.57 W/cm2 for 180 seconds so that the fluence was of 102.6 J/cm^2. […]

[3] = system: vascular walls of retinal normal vascular vessels and choroidal neovascular vessels (CNV); test: fluorescence fundus angiography of NPe6 red fluorescence (488 nm excitation) in monkeys having experimental CNV; type: in vivo, monkeys of the genus Macaca; details: for time point at which red fluorescence was substantially entirely eliminated from retinal normal vascular vessels while CNV lesions continued to emit: Test Example 2
From the text: The detailed procedures of the above experiments are as follows. Thus, a beam of a laser light of 647 nm wavelenght as emitted from a krypton laser generator [Coherent Medical Laser generator, manufactured by Novua Omni Co.; having an output of 500 to 900 mW] was irradiated as a laser-irradiating spot of a diameter of 50 μm onto the ocular fundi of 8 mature monkeys of the genus Macaca (of body weights of 3.5 kg to 6.0 kg) for 0.1 seconds, according to a modification of the Ryan's method [Arch. Ophthalmol., vol 100; pp. 1804–1809 (1982)]. It is said that the resulting damage in the Bruch's membrane, which were incurred by the irradiation of the 647 nm laser light, is very effective for the incidence of ocular neovascular vessels. Thereby, there were induced the experimental choroidal neovascular vessels (abbreviated as CNV). The induced CNV are the neovascular vessels as branched from the choroidal normal vascular vessels in the ocular fundus. Such CNV have infiltrated in the subretinal space, namely the space between the sensory retina and choroids, to involve the occurrence of exudation, bleeding and retinal detachment. The formation of the neovasculature lesions comprising the CNV was confirmed by a process which comprised intravenously injecting fluorescein or indocyanine green to the so treated monkeys and subsequently carrying out the diagnosis method according to a fluorescence fundus angiography of the ocular fundus.
In the course of said irradiation of 488 nm laser light beam for 10 minutes, the images of the red fluorescence as emitted in the ocular fundus were recorded by photography on a video tape by means of a high-sensitivity television fundus camera apparatus. Thereafter, at intervals of 10 minutes, a beam of 488 nm laser light was repeatedly irradiated to the ocular fundus each for about one minute. At each of the irradiations of the 488 nm laser light beam, the images of the red fluorescence emitted from the vascular vessels of the ocular fundus were recorded on the video tape. […] The images of the fluorescence emitted from the ocular fundus vascular vessels were then reproduced from the recording video tape for the purpose of observation.
During this 10 minutes-irradiation of the 488 nm-laser light to the ocular fundi, the images of the red fluorescence emitted from the ocular fundi were recorded by photography on a video tape by means of a high-sensitivity television fundus camera.
During this irradiation of the 488 nm-laser light, the images of the red fluorescences emitted from the retinal normal vascular vessels and from the choroidal neovascular vessels were observed by an apparatus for the fluorescence ocular fundus angiography of the ocular fundus (namely, an infrared light fundus camera).

[4] = system: ocular fundus tissue with choroidal neovascular vessels (CNV); test: fluorescence microscopy of cross-section samples of enucleated eyeballs; type: in vivo, monkeys of the genus Macaca; details: 20 mg/kg iv, eyeballs enucleated 65 to 70 minutes after injection, excitation 380 to 420 nm
Description: These cut pieces of the eyeballs were frozen in a bath of liquid nitrogen. Cross-section samples each having a thickness of 5 μm were prepared from the ocular fundus tissue region of the frozen pieces of the eyeballs.

[5] = system: CD-1 (male) mice; test: acute toxicity test (LD50); type: in vivo
[6] = system: vascular walls of retinal normal vascular vessels and choroidal neovascular vessels (CNV); test: infrared fluorescence fundus angiography of ICG (790 nm excitation) in monkeys having experimental CNV; type: in vivo, monkeys of the genus Macaca; details: for infrared fluorescence in CNV / infrared fluorescence in retinal normal vascular vessels: ICG 0.5 mg/kg iv
From the text: In these experiments, the time-dependent changes in the concentrations of ICG having distributed and remaining in the vascular walls of the retinal normal vascular vessels and in the vascular walls of the choroidal neovascular vessels (CNV) in the ocular fundus of the monkeys were examined by a process wherein a beam of laser light containing a light of 790 nm-wavelength (as emitted from a semiconductor type laser generator) was used as an excitation light, and wherein the changes in the intensity of the infrared fluorescence emitted from the ICG as excited within said vascular walls were continuously recorded by photographs by means of an infrared light fundus camera apparatus (of modified TCR 50-IA type, manufactured by Topcon Co., Japan) for the infrared fluorescence fundus angiography for diagnosing the ocular fundus, and wherein the photographed images of the fundus were observed visually.
In the same manner as in the above Test Example 1, the neovasculature lesions comprising the experimental choroidal neovascular vessels (CNV) were produced in the ocular fundi of monkeys of the genus Macaca, according to the modified Ryan's method.
An aqueous solution of ICG dissolved in distilled water for the injections at a concentration of 5.0 mg/ml of ICG was intravenously injected at a dose of ICG of 0.5 mg/kg at a vein in the lower limbs of the monkeys having the neovasculature lesions in the retina of the eye.
Immediately after the time of the intravenous injection of ICG, the ocular fundi of the monkeys were continuously observed under irradiation of the beam of laser light containing a light of 790 nm-wavelength by means of an infrared light camera apparatus (of a modified TCR 50-IA type, manufactured by Topcon Co.) for infrared fluorescence fundus the angiography for diagnosing the ocular fundus.
To these test monkeys was intravenously injected ICG at a dose of 1 mg/kg in the same way as in Test Example 3. Immediately after the time of the intravenous injection of ICG, the ocular fundi of the monkeys were continuously observed by means of an infrared light fundus camera apparatus (of modified TCR 50 type, manufactured by Topcon Co., Ltd.) for the infrared fluorescence fundus angiography for diagnosing the ocular fundus. The observation with the fundus camera was made under irradiation of the ocular fundi with the laser light containing a light of 790 nm-wavelength. There was recorded the time point at which the infrared fluorescence of ICG was eliminated entirely from the retinal normal vascular vessels.

[7] = system: vascular walls of retinal normal vascular vessels and choroidal neovascular vessels (CNV); test: infrared fluorescence fundus angiography after co-injection of ICG and NPe6 (Test Example 5); type: in vivo, monkeys of the genus Macaca; details: ICG 0.5 mg/kg co-injected with NPe6 0.5 mg/kg
From the text: The 664 nm-laser light as irradiated was irradiated at an irradiance of 0.68 W/cm^2 for 300 second so that the fluence was of 204 J/cm^2.

[8] = 0.5 mg/kg iv, 20 minutes after injection
[9] = 1.0 mg/kg iv, 30 minutes after injection
[10] = 20 mg/kg iv, 7.5 minutes after injection
[11] = 20 mg/kg iv, 20 minutes after injection
[12] = 20 mg/kg iv, 60 minutes after injection
[13] = 20 minutes after administration
[14] = about 7 to 8 minutes after injection

`C=Cc1c(C)c2cc3nc(c(CC(=O)N[C@@H](CC(=O)[O-])C(=O)[O-])c4[nH]c(cc5nc(cc1[nH]2)C(C)=C5CC)c(C)c4C(=O)[O-])[C@@H](CCC(=O)[O-])[C@@H]3C.[Na+].[Na+].[Na+].[Na+]` [NPe6, mono-L-aspartyl chlorin e6 tetra-sodium salt] was tested, and the “state of retinal and choroidal normal vascular vessels adjacent to the occluded CNV” value [1] was “remaining intact or nearly intact”, the “number of treated neovasculature lesions whose CNV were successfully occluded” value ([2]; NPe6 1 mg/kg iv after ICG cleared, irradiation started 30 min, 0.57 W/cm2, 180 s, 102.6 J/cm^2, 3 lesions treated, judged after one week) was 3 and the “state of adjacent retinal normal vascular vessels, retinal parenchymal tissue and choroidal normal vascular vessels” value ([2]; NPe6 1 mg/kg iv, 664 nm-laser 102.6 J/cm^2, judged after one week) was “could remain intact”. For the same compound, the “red fluorescence in CNV” value [3, 8] was “confirmably observed at a slight but appreciable intensity”, the “red fluorescence in retinal normal vascular vessels” value [3, 8] was “substantially entirely been eliminated and disappeared” and the “time point at which red fluorescence was substantially entirely eliminated from retinal normal vascular vessels while CNV lesions continued to emit” value (shortened to “time point”) ([3]; 0.5 mg/kg iv) was 20 min. The “red fluorescence in CNV” value [3, 9] was “confirmed at a significant and appreciable intensity”, the “red fluorescence in retinal normal vascular vessels” value [3, 9] was “substantially entirely been eliminated” and the “time point” value ([3]; 1 mg/kg iv) was 30 min. The “time point” value ([3]; 2 mg/kg iv) was 60 min, the “time point” value ([3]; 10 mg/kg iv) was 60 min and the “red fluorescence in vascular walls of CNV” value [3, 10] was “observable slightly but detectable at its weak intensity”. For the same compound, the “red fluorescence in vascular walls of retinal normal vascular vessels” value [3, 10] was “appreciably observable at its prominent intensity”, the “red fluorescence in CNV” value [3, 11] was “remain at a higher and prominently observable intensity” and the “red fluorescence in retinal normal vascular vessels” value [3, 11] was “decreased to a lower and hardly detectable intensity”. The “red fluorescence in CNV” value [3, 12] was “observed at a high and prominent intensity”, the “red fluorescence in retinal normal vascular vessels” value [3, 12] was “never observable” and the “time of peak NPe6 concentration in vascular walls of CNV after intravenous injection” value ([3]; monkeys with experimental CNV) was “about 20 minutes”. The “permeation into normal parenchymal tissue of the ocular retina” value ([3]; monkeys, intravenous) was “never permeate”, the “red fluorescence at CNV in cross-section samples” value [4] was “observed confirmably at a significant intensity” and the “red fluorescence at retinal normal vascular vessels in cross-section samples” value [4] was “only a very slight degree of the red fluorescence”. For the same compound, the “red fluorescence in cross-section samples of retinal parenchymal region” value [4] was “almost not observable” and the LD50 [5] was 164 mg/kg.

In the case of `CC1(C)C(/C=C/C=C/C=C/C=C2\N(CCCCS(=O)(=O)O)c3ccc4ccccc4c3C2(C)C)=[N+](CCCCS(=O)(=O)[O-])c2ccc3ccccc3c21` [ICG, indocyanine green], the “infrared fluorescence in CNV” value [6, 13] is reported as “increased to a prominent and appreciable intensity”, the “infrared fluorescence in retinal normal vascular vessels” value [6, 13] is reported as “had decreased” and the “infrared fluorescence in CNV” value [6, 14] is reported as “a slight but appreciable intensity”. For the same compound, the “infrared fluorescence in retinal normal vascular vessels” value [6, 14] was “observed at a prominent and appreciable intensity”, the “time-gap between intravenous injection and entire elimination of infrared fluorescence from retinal normal vascular vessels” value ([6]; ICG 1 mg/kg iv) was 30 min and the “infrared fluorescence of ICG in retinal normal vascular vessels” value ([7]; 20 minutes after injection) was “decreased to a poor intensity”. For the same compound, the “infrared fluorescence of ICG in vascular walls of CNV” value ([7]; 20 minutes after injection) was “retained at a prominent and apreciable intensity” and the “infrared fluorescence of ICG in retinal normal vascular vessels” value [7, 14] was “observed at a prominent and appreciable intensity”.
